Source: US7544703B2, “Cyclic compound having 4-pyridylalkylthio group having substituted or unsubstituted amino group introduced therein” (Santen Pharmaceutical Co., Ltd., priority 2004, dated 2009)
Structures can show the parent of a compound that is named as a salt.

How the values were obtained:
B16 cells = test: Tumor growth inhibitory action test using cancer models in mice (B16 cells); assay type: in vivo; conditions: C57BL/6N mouse, B16 cells intradermal; 100 mg/kg/day oral once a day, day 0 to day 10; average of 9 mice per group; read-out: Tumor tissue weight inhibition rate (%)
Protocol: A tumor growth inhibitory action test of the compounds of the present invention was performed using a tumor growth model in mice, which is one of the widely-used methods of evaluating in vivo anticancer effects of drugs.
As one of the widely-used methods of evaluating anticancer effects of drugs, a tumor growth inhibitory action test using cancer models in mice has been reported in Cancer Res., 59, 5209-5218 (1999). According to the method described in the above-mentioned document, a tumor growth inhibitory action test of the compounds of the present invention was performed, the tumor tissue weight inhibition rate was calculated, and the anticancer effect of each of the compounds of the present invention was evaluated using the obtained rate as an index.
A 1% aqueous methyl cellulose solution was added to each test compound to suspend it with a sonicator, whereby a 10 mg/mL test compound suspension was prepared.
Physiological saline was added to B16 cells, whereby a 3.3×10^7 cells/mL B16 cell suspension was prepared.
• 1) The back of each mouse (female, 6 weeks of age, C57BL/6N mouse) was depilated using a depilatory under Nembutal anesthesia. • 2) Several days after the depilation, the B16 cell suspension (300 μL) was injected intradermally into the back of the mouse under Nembutal anesthesia. • 3) From the B16 cell injection day (i.e. on day 0) to day 10, the test compound suspension (100 mg/kg/day) was orally administered once a day consecutively. • 4) Ten days after the injection of the cells, the mouse was euthanized with CO2 gas. • 5) A tumor tissue was enucleated from the mouse, and the weight of the tumor tissue was measured with an electronic balance. • 6) A test was performed in the same manner as in 1) to 5) except that the 1% aqueous methyl cellulose solution was used instead of the test compound suspension, and the result was used as a control. (Calculation of Tumor Tissue Weight Inhibition Rate)
A tumor tissue weight inhibition rate (the average of 9 mice per group), which was used as an index of anticancer effect, was calculated according to the following calculation equation. Tumor tissue weight inhibition rate (%)=100−(Mx/Mo)×100 (Calculation Equation) Mo: Tumor tissue weight of control group Mx: Tumor tissue weight of test compound solution administration group (Test Results and Discussion)

[1] = test system: HUVEC (normal human umbilical vein endothelial cells); test: VEGF-induced HUVEC proliferation: cell proliferation inhibitory action test; assay type: cell-based; conditions: 72 h, 5 μL of 20 μg/mL test compound solution per well, WST-8 absorbance at 450 nm three days after VEGF addition, read-out: Cell proliferation inhibition rate (%);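 further: each well holds 100 µL cell suspension before compound addition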
How it was run: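 HUVECs in 0.5% FBS F12K on type I collagen were pretreated 1 h with compound (20 μg/mL solution in PBS from DMSO stock, 5 μL/well), then stimulated with VEGF (400 ng/mL solution). After 3 days at 37 °C, viability was read by WST-8 A450. Inhibition % was calculated against a 1.0% DMSO control, minus cell+medium blank.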

Structure (SMILES) | inhibition in vivo at 100 mg/kg/day (B16 cells) | inhibition at 20 µg/mL (stock) [1]
CNc1cc(CSc2ncccc2C(=O)Nc2ccc(OC(F)(F)F)cc2)ccn1 [Compound 3-8, 2-(2-Methylaminopyridin-4-ylmethylthio)-N-(4-trifluoromethoxyphenyl)pyridine-3-carboxamide monohydrochloride] | 80% | 100%
Cc1cc(C)cc(NC(=O)c2cccnc2SCc2ccnc(N)c2)c1 [Compound 3-1, 2-(2-Aminopyridin-4-ylmethylthio)-N-(3,5-dimethylphenyl)pyridine-3-carboxamide monohydrochloride] | 70% | 100%
CC(=O)OCC(=O)Nc1cc(CSc2ncccc2C(=O)Nc2cc(C)cc(C)c2)ccn1 [Compound 10-1, 2-(2-Acetoxyacetylaminopyridin-4-ylmethylthio)-N-(3,5-dimethylphenyl)pyridine-3-carboxamide] | 54% | 100%
O=C(CO)Nc1cc(CSc2ncccc2C(=O)Nc2ccc(OC(F)(F)F)cc2)ccn1 [Compound 12-1, 2-(2-Hydroxyacetylaminopyridin-4-ylmethylthio)-N-(4-trifluoromethoxyphenyl)pyridine-3-carboxamide] | 85% | 78%
CC(=O)Nc1cc(CSc2ncccc2C(=O)Nc2cc(C)cc(C)c2)ccn1 [Compound 4-1, 2-(2-Acetylaminopyridin-4-ylmethylthio)-N-(3,5-dimethylphenyl)pyridine-3-carboxamide] | 75% | 100%
CC(=O)Nc1cc(CSc2ncccc2C(=O)Nc2ccc(Cl)cc2)ccn1 [Compound 4-10, 2-(2-Acetylaminopyridin-4-ylmethylthio)-N-(4-chlorophenyl)pyridine-3-carboxamide] | 75% | 100%
CNC(=O)Nc1cc(CSc2ncccc2C(=O)Nc2cc(C)cc(C)c2)ccn1 [Compound 9-1, N-(3,5-Dimethylphenyl)-2-[2-(N′-methylureido)pyridin-4-ylmethylthio]pyridine-3-carboxamide] | 43% | 100%
Nc1cc(CSc2ncccc2C(=O)Nc2ccc(OC(F)(F)F)cc2)ccn1 [Compound 3-10, 2-(2-Aminopyridin-4-ylmethylthio)-N-(4-trifluoromethoxyphenyl)pyridine-3-carboxamide] | 85% | 97%
CC(=O)Nc1cc(CSc2ncccc2C(=O)Nc2ccc(OC(F)(F)F)cc2)ccn1 [Compound 4-11, 2-(2-Acetylaminopyridin-4-ylmethylthio)-N-(4-trifluoromethoxyphenyl)pyridine-3-carboxamide] | 86% | 93%
